Data reported in the NIST ThermoML archive (doi:10.1016/j.jct.2009.05.013).
Several values for one entry are separate records, joined by “and”; a condition that tells them apart may be missing. Equal entries are not always repeated. Numbers after ± are expanded uncertainties.

Conditions: Crystal, Calculated from knudsen effusion weight loss

Nc1cc(Cl)c(Cl)cc1[N+](=O)[O-] [4,5-dichloro-2-nitrobenzenamine]
vapor or sublimation pressure (351.32 K): 0.000199 ± 1e-05 kPa and 0.000196 ± 1e-05 kPa and 0.000193 ± 1e-05 kPa | vapor or sublimation pressure (353.21 K): 0.000251 ± 1.3e-05 kPa and 0.000243 ± 1.2e-05 kPa and 0.000239 ± 1.2e-05 kPa | vapor or sublimation pressure (355.25 K): 0.000288 ± 1.4e-05 kPa and 0.000286 ± 1.4e-05 kPa | vapor or sublimation pressure (357.24 K): 0.000364 ± 1.8e-05 kPa and 0.000355 ± 1.8e-05 kPa | vapor or sublimation pressure (359.42 K): 0.000463 ± 2.3e-05 kPa and 0.000453 ± 2.3e-05 kPa and 0.000452 ± 2.3e-05 kPa | vapor or sublimation pressure (361.45 K): 0.000565 ± 2.8e-05 kPa and 0.000558 ± 2.8e-05 kPa and 0.000552 ± 2.8e-05 kPa | vapor or sublimation pressure (363.23 K): 0.000665 ± 3.3e-05 kPa and 0.000673 ± 3.4e-05 kPa and 0.000675 ± 3.4e-05 kPa | vapor or sublimation pressure (365.49 K): 0.000831 ± 4.2e-05 kPa and 0.000843 ± 4.2e-05 kPa and 0.000807 ± 4e-05 kPa | vapor or sublimation pressure (367.38 K): 0.000995 ± 5e-05 kPa and 0.000996 ± 5e-05 kPa and 0.000976 ± 4.9e-05 kPa
